Test results as given in patent US6881741B2 (ViroChem Pharma Inc., priority 2001, dated 2005).

Target: recombinant HCV NS5B (HCV RNA-dependent RNA polymerase) (Hepatitis C virus genotype 1b, UniProt P26663)
Assay: biochemical
Settings: related polymerase activity (Example 27 list); read-out: IC50

Sequence of recombinant HCV NS5B (HCV RNA-dependent RNA polymerase) (P26663 2420-3010 limits assumed): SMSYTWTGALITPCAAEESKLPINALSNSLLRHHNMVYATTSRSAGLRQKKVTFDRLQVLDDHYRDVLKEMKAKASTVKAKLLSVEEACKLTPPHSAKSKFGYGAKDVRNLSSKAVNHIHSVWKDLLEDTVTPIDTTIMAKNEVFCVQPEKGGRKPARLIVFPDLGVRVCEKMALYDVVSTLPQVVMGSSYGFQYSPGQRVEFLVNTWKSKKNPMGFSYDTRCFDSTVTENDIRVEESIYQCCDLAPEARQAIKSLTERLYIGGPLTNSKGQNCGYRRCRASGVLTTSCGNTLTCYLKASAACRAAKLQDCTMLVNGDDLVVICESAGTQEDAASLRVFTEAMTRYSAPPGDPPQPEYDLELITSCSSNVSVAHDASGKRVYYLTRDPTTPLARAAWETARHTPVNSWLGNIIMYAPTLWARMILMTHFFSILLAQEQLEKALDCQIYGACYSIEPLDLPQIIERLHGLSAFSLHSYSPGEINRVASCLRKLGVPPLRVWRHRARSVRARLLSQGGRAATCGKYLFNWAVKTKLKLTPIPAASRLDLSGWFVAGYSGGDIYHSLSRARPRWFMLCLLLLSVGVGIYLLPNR

Q: For `CCOC(=O)c1cccc(-c2cc(NS(=O)(=O)c3ccccc3C)c(C(=O)O)s2)c1` [Compound 121, 5-(3-ETHOXYCARBONYL-PHENYL)-3-(TOLUENE-2-SULFONYLAMINO)-THIOPHENE-2-CARBOXYLIC ACID], which IC50 is on record?
A: 5 to 20 µM

Q: `COc1ccc(-c2cc(NS(=O)(=O)c3ccccc3C)c(C(=O)O)s2)cc1` [Compound 122, 5-(4-METHOXY-PHENYL)-3-(TOLUENE-2-SULFONYLAMINO)-THIOPHENE-2-CARBOXYLIC ACID] was tested. Which IC50 did it give?
A: < 5 µM

Q: With `COc1cccc(-c2cc(NS(=O)(=O)c3ccccc3C)c(C(=O)O)s2)c1` [Compound 123, 5-(3-METHOXY-PHENYL)-3-(TOLUENE-2-SULFONYLAMINO)-THIOPHENE-2-CARBOXYLIC ACID] as the molecule, how does the IC50 read?
A: < 5 µM

Q: Which IC50 does the source give for `Cc1ccccc1S(=O)(=O)Nc1cc(-c2ccc(-c3ccc(Br)cc3)cc2)sc1C(=O)O` [Compound 124, 5-(4′-BROMO-BIPHENYL-4-YL)-3-(TOLUENE-2-SULFONYLAMINO)-THIOPHENE-2-CARBOXYLIC ACID] here?
A: < 5 µM

Q: `Cc1ccccc1S(=O)(=O)Nc1cc(-c2ccc(CO)cc2)sc1C(=O)O` [Compound 125, 5-(4-HYDROXYMETHYL-PHENYL)-3-(TOLUENE-2-SULFONYLAMINO)-THIOPHENE-2-CARBOXYLIC ACID] was tested. Which IC50 did it give?
A: < 5 µM

Q: `Cc1ccccc1S(=O)(=O)Nc1cc(-c2ccoc2)sc1C(=O)O` [Compound 126, 5-FURAN-3-YL-3-(TOLUENE-2-SULFONYLAMINO)-THIOPHENE-2-CARBOXYLIC ACID] was tested. Which IC50 did it give?
A: < 5 µM

Q: For `Cc1ccccc1S(=O)(=O)Nc1cc(-c2cc3ccccc3o2)sc1C(=O)O` [Compound 127, 5-BENZOFURAN-2-YL-3-(TOLUENE-2-SULFONYLAMINO)-THIOPHENE-2-CARBOXYLIC ACID], which IC50 is on record?
A: < 5 µM

Q: Which IC50 does the source give for `Cc1ccccc1S(=O)(=O)Nc1cc(-c2ccccn2)sc1C(=O)O` [Compound 128, 5-PYRIDIN-2-YL-3-(TOLUENE-2-SULFONYLAMINO)-THIOPHENE-2-CARBOXYLIC ACID] here?
A: < 5 µM

Q: With `O=C(O)c1sc(-c2ccc([N+](=O)[O-])cc2)cc1NS(=O)(=O)c1ccccn1` [Compound 129, 5-(4-NITRO-PHENYL)-3-(PYRIDINE-2-SULFONYLAMINO)-THIOPHENE-2-CARBOXYLIC ACID] as the molecule, how does the IC50 read?
A: 5 to 20 µM

Q: How did the IC50 turn out when `CN(C(=O)c1cc2ccccc2o1)c1cc(-c2ccccc2)sc1C(=O)O` [Compound 130, 3-[(BENZOFURAN-2-CARBONYL)-METHYL-AMINO]-5-PHENYL-THIOPHENE-2-CARBOXYLIC ACID] was run?
A: > 20 µM

Q: `Cc1ccc(C(=O)N(C)c2cc(-c3ccccc3)sc2C(=O)O)c(C)c1` [Compound 131, 3-[(2,4-DIMETHYL-BENZOYL)-METHYL-AMINO]-5-PHENYL-THIOPHENE-2 CARBOXYLIC ACID] was tested. Which IC50 did it give?
A: < 5 µM

Q: `N#Cc1ccccc1-c1ccc(CN(C(=O)c2ccc(Cl)cc2Cl)c2cc(-c3ccccc3)sc2C(=O)O)s1` [Compound 132, 3-[[(5-(2-CYANO-PHENYL)-THIOPHEN-2-YLMETHYL]-(2,4-DICHLORO-BENZOYL)-AMINO]-5-PHENYL-THIOPHENE-2-CARBOXYLIC ACID] was tested. Which IC50 did it give?
A: < 5 µM

Q: `O=C(O)c1sc(-c2ccc(F)cc2)cc1NS(=O)(=O)c1ccccn1` [Compound 133, 5-(4-FLUORO-PHENYL)-3-(PYRIDINE-2-SULFONYLAMINO)-THIOPHENE-2-CARBOXYLIC ACID] was tested. Which IC50 did it give?
A: < 5 µM

Q: With `Cc1ccccc1S(=O)(=O)Nc1cc(/C=C/c2ccc(Cl)cc2)sc1C(=O)O` [Compound 134, 5-[2-(4-CHLORO-PHENYL)-VINYL]-3-(TOLUENE-2-SULFONYLAMINO)-THIOPHENE-2-CARBOXYLIC ACID] as the molecule, how does the IC50 read?
A: 5 to 20 µM

Q: With `O=C(O)c1sc(-c2ccc(F)cc2)cc1NS(=O)(=O)c1ccccc1` [Compound 135, 3-BENZENESULFONYLAMINO-5-(4-FLUORO-PHENYL)-THIOPHENE-2-CARBOXYLIC ACID] as the molecule, how does the IC50 read?
A: < 5 µM

Q: How did the IC50 turn out when `Cc1ccc(S(=O)(=O)Nc2cc(-c3ccccc3)sc2C(=O)O)c(C)c1` [Compound 136, 3-(2,4-DIMETHYL-BENZENESULFONYLAMINO)-5-PHENYL-THIOPHENE-2-CARBOXYLIC ACID] was run?
A: < 5 µM

Q: Which IC50 does the source give for `C=Cc1ccccc1S(=O)(=O)Nc1cc(-c2ccccc2)sc1C(=O)O` [Compound 137, 5-PHENYL-3-(2-VINYL-BENZENESULFONYLAMINO)-THIOPHENE-2-CARBOXYLIC ACID] here?
A: 5 to 20 µM

Q: `O=C(O)c1sc(-c2ccccc2)cc1NS(=O)(=O)c1cc(F)c(Br)cc1F` [Compound 138, 3-(4-BROMO-2,5-DIFLUORO-BENZENESULFONYLAMINO)-5-PHENYL-THIOPHENE-2-CARBOXYLIC ACID] was tested. Which IC50 did it give?
A: < 5 µM

Q: How did the IC50 turn out when `CC(=O)Nc1nc(C)c(S(=O)(=O)Nc2cc(-c3ccccc3)sc2C(=O)O)s1` [Compound 139, 3-(2-ACETYLAMINO-4-METHYL-THIAZOLE-5-SULFONYLAMINO)-5-PHENYL-THIOPHENE-2-CARBOXYLIC ACID] was run?
A: 5 to 20 µM

Q: With `CC(=O)c1ccc(S(=O)(=O)Nc2cc(-c3ccccc3)sc2C(=O)O)cc1` [Compound 140, 3-(4-ACETYL-BENZENESULFONYLAMINO)-5-PHENYL-THIOPHENE-2-CARBOXYLIC ACID] as the molecule, how does the IC50 read?
A: 5 to 20 µM

Q: Which IC50 does the source give for `O=C(O)c1sc(-c2ccccc2)cc1NS(=O)(=O)c1ccc(F)cc1C(F)(F)F` [Compound 141, 3-(4-FLUORO-2-TRIFLUOROMETHYL-BENZENESULFONYLAMINO)-5-PHENYL-THIOPHENE-2-CARBOXYLIC ACID] here?
A: 5 to 20 µM

Q: For `COc1cc(C)ccc1S(=O)(=O)Nc1cc(-c2ccccc2)sc1C(=O)O` [Compound 142, 3-(2-METHOXY-4-METHYL-BENZENESULFONYLAMINO)-5-PHENYL-THIOPHENE-2-CARBOXYLIC ACID], which IC50 is on record?
A: 5 to 20 µM

Q: For `O=C(O)c1sc(-c2ccccc2)cc1NS(=O)(=O)c1ccc(F)c(F)c1` [Compound 143, 3-(3,4-DIFLUORO-BENZENESULFONYLAMINO)-5-PHENYL-THIOPHENE-2-CARBOXYLIC ACID], which IC50 is on record?
A: < 5 µM

Q: With `CCOC(=O)c1c(C)oc(-c2ccc(Cl)cc2)c1S(=O)(=O)Nc1cc(-c2ccccc2)sc1C(=O)O` [Compound 144, 4-(2-CARBOXY-5-PHENYL-THIOPHEN-3-YLSULFAMOYL)-5-(4-CHLORO-PHENYL)-2-METHYL-FURAN-3-CARBOXYLIC ACID ETHYL ESTER] as the molecule, how does the IC50 read?
A: 5 to 20 µM

Q: How did the IC50 turn out when `O=C(O)c1sc(-c2ccccc2)cc1NS(=O)(=O)c1ccc(F)c(C(F)(F)F)c1` [Compound 145, 3-(4-FLUORO-3-TRIFLUOROMETHYL-BENZENESULFONYLAMINO)-5-PHENYL-THIOPHENE-2-CARBOXYLIC ACID] was run?
A: 5 to 20 µM

Q: For `Nc1ccccc1S(=O)(=O)Nc1cc(-c2ccccc2)sc1C(=O)O` [Compound 146, 3-(2-AMINO-BENZENESULFONYLAMINO)-5-PHENYL-THIOPHENE-2-CARBOXYLIC ACID], which IC50 is on record?
A: < 5 µM

Q: Which IC50 does the source give for `O=C(O)c1sc(-c2ccccc2)cc1NS(=O)(=O)c1cccc([N+](=O)[O-])c1` [Compound 147, 3-(3-NITRO-BENZENESULFONYLAMINO)-5-PHENYL-THIOPHENE-2-CARBOXYLIC ACID] here?
A: < 5 µM

Q: With `O=C(O)c1sc(-c2ccccc2)cc1NS(=O)(=O)c1ccc([N+](=O)[O-])cc1` [Compound 148, 3-(4-NITRO-BENZENESULFONYLAMINO)-5-PHENYL-THIOPHENE-2-CARBOXYLIC ACID] as the molecule, how does the IC50 read?
A: 5 to 20 µM

Q: For `CC(C)N(C(=O)c1ccc(Cl)cc1Cl)c1cc(-c2ccccc2)sc1C(=O)O` [Compound 149, 3-[(2,4-DICHLORO-BENZOYL)-ISOPROPYL-AMINO]-5-PHENYL-THIOPHENE-2-CARBOXYLIC ACID], which IC50 is on record?
A: < 5 µM

Q: How did the IC50 turn out when `Cc1ccccc1S(=O)(=O)Nc1cc(Cc2cccc(C#N)c2)sc1C(=O)O` [Compound 150, 5-(3-CYANO-BENZYL)-3-(TOLUENE-2-SULFONYLAMINO)-THIOPHENE-2-CARBOXYLIC ACID] was run?
A: > 20 µM
